Where two headings read alike, the source gives them in different places.
Assays:
[1] = test system: P. falciparum female gametes; experiment: Pf FGAA with compounds added 30 min after triggering gametocyte activation (gamete-targeting); assay type: cell-based, Plasmodium falciparum NF54; details: 0h incubation time
[2] = test system: P. falciparum stages IV–V gametocytes; experiment: Gametocytocidal ATP-depletion assay (gametocyte ATP bioluminescence); assay type: cell-based, Plasmodium falciparum
How it was run: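 Read-out is luciferase luminescence of parasite ATP (BacTiter-Glo), standing in for viability. Double-purified mature stage IV–V gametocytes, 12,500 per well, were exposed 48 h at 37 °C in low-O2 gas; screening concentration 2 μM.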

[3] = test system: P. falciparum asexual blood stages; details: cited from earlier work; for IC50: read-out: Pf Asexual blood stages XC50
HepG2 cells = experiment: HepG2 cytotoxicity assay; assay type: cell-based
How it was run: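 Cell viability is measured by CellTiter-Glo luminescence. Signal is developed at room temperature and read 10 min after adding the reagent, with plates and reagent first equilibrated for 30 min.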

[4] = test system: P. falciparum stage V female gametocytes; experiment: P. falciparum female gametocyte activation assay (Pf FGAA), 24 h or 48 h preincubation, Pfs25 expression readout; assay type: cell-based, Plasmodium falciparum NF54; details: for Pf FGAA classification: SLOW / FAST / GAMETE from activity at 48h, 24h, 0h incubation
How it was run: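 Female activation, triggered by xanthurenic acid and cooling, was scored by imaging Cy3-labelled anti-Pfs25 female gametes after 24 h at 26 °C. Beforehand, purified NF54 stage V gametocytes had been incubated with compound for either 24 h or 48 h (37 °C, 3% O2). Values are pIC50 from full-curve regression.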

[5] = TCAMS asexual blood stage data, ref 1 (Gamo, F. J. et al., Nature 465, 305-310, 2010)
[6] = TCAMS data, ref 1 (Gamo, F. J. et al., Nature 465, 305-310, 2010)
[7] = 24h incubation time, read-out: Pf FGAA IC50 (µM) 24h
[8] = P. falciparum female gametocytes, mean, read-out: Gametocytes mean Pf FGAA IC50
[9] = TCAMS data, ref 1 (Gamo et al., 2010)
[10] = mean, read-out: Gametocytes mean Pf FGAA IC50

Compound | IC50 [1] [µM] | Gametocytes mean ATP inhibition at 2µM [2] [%] | IC50 [3, 5] [nM] | Pf Asexual stages XC50 [3, 6] [nM] | HepG2 cells mean TOX50 (HepG2 cells; HepG2 cells) [µM] | IC50 [4, 7] [µM] | IC50 [4, 8] [µM] | Pf FGAA classification [4] | HepG2 cells TOX50 (HepG2 cells; HepG2 cells) [µM] | Gametocytes mean ATP inhibition at 2µM (%) [2] [%] | IC50 [3, 9] [nM] | HepG2 cells mean TOX50 (HepG2 cells) [µM] | IC50 [4, 10] [µM] | IC50 ([1]; Plasmodium falciparum) [µM] | inhibition at 2 µM ([2]; Plasmodium falciparum, mean) [%] | Selectivity ratio (HepG2 cells; HepG2 TOX50 vs Pf FGAA IC50) | IC50 ([4]; Plasmodium falciparum, 24h incubation time, read-out: Pf FGAA IC50 (µM) 24h) [µM] | IC50 ([4]; Plasmodium falciparum, mean, read-out: Gametocytes mean Pf FGAA IC50) [µM]
COc1cccc(-c2csc(C(=O)NCC3CCN(Cc4ccc(C(C)C)cc4)C3)c2)c1.O=C(O)C(F)(F)F (stereo not drawn) [TCMDC-134439] | > 20 | 2.89 | 1390 | 1390 | 11.51 | 3.22 | 1.37 | SLOW |  |  |  |  |  |  |  |  |  | 
FC(F)(F)c1ccc2[nH]c(-c3ccc(-c4ccc(CNCCN5CCNCC5)cc4)cc3)nc2c1.O=C(O)C(F)(F)F [TCMDC-132865] | > 20 | -10.30 | 1120 | 1120 | 16.43 | > 20 | 1.41 | SLOW |  |  |  |  |  |  |  |  |  | 
CCOc1ccc(-n2nc3c(Cl)nnc(-c4ccccc4)c3c2-c2ccccc2)cc1 [TCMDC-123899] | > 20 | -0.60 | 230 | 310 | >100 | > 20 | 0.94 | SLOW | >100 |  |  |  |  |  |  |  |  | 
Cc1cccc2nc(-c3ccc(-c4ccc(CNCc5ccc(CN)cc5)cc4)cc3)[nH]c12.O=C(O)C(F)(F)F [TCMDC-132813] | 4.35 | 13.49 | 720 | 720 | 18.09 | 0.21 | 2.16 | FAST |  |  |  |  |  |  |  |  |  | 
Cc1cccc2nc(-c3ccc(-c4ccc(CNCc5ccc(CN)cc5)cc4)s3)[nH]c12.O=C(O)C(F)(F)F [TCMDC-132809] | 5.14 | 36.48 | 440 | 440 | 14.79 | 1.17 | 0.47 | FAST |  |  |  |  |  |  |  |  |  | 
O=C(Nc1nc(-c2ccccn2)cs1)c1ccc(S(=O)(=O)N2CCc3ccccc32)cc1 [TCMDC-125432] | > 20 | -8.57 | 830 | 830 | 29.22 | 0.7 | 1.07 | FAST |  |  |  |  |  |  |  |  |  | 
Cc1ccc(C)c2sc(N3CCN(C(=O)c4ccc([N+](=O)[O-])o4)CC3)nc12 [TCMDC-124315] | > 20 | 3.06 | 820 | 820 | 37.65 | 2.82 | 1.12 | SLOW |  |  |  |  |  |  |  |  |  | 
CN(C)CCNCc1cccc(-c2ccc3c(Nc4ccc(Oc5ccccn5)cc4)ccnc3c2)c1 [TCMDC-138493] | 2.27 |  |  | 230 |  | 2.58 |  | GAMETE |  | 38.43 | 230 | 3.98 | 0.82 |  |  |  |  | 
Cc1ccc(S(=O)(=O)N(CCCNCc2cccc(O)c2)c2ccccc2)cc1 [TCMDC-138022] |  |  |  | 770 |  |  |  | SLOW |  |  | 770 | 44.67 |  | > 20 | 32 | 39.21 | > 20 | 1.14
CCN(CCNS(C)(=O)=O)c1ccc(N)c(C)c1.O.O=S(=O)(O)O [TCMDC-125836] | 3.56 | 7.23 | 880 | 880 | 26.14 | 0.3 | 1.14 | FAST |  |  |  |  |  |  |  |  |  | 
CC(=O)Nc1ccc2[nH]cc(C3CCN(CC4CCN(C(=O)/C=C/c5ccc(Cl)c(Cl)c5)CC4)CC3)c2n1 [TCMDC-140112] | 13.1 |  |  | 160 |  | 14.2 |  | SLOW |  | 8.03 | 160 | 12.59 | 1.38 |  |  |  |  | 

— PMC5442318, “Hundreds of dual-stage antimalarial molecules discovered by a functional gametocyte screen” (Nature Communications, 2017)
